# Measurements reported in patent US12091411B2, “IRAK degraders and uses thereof” (Kymera Therapeutics, Inc., priority 2022, dated 2024).
# Read-outs that look alike come from different tables or passages of the source.
# Molecular target: T1, IRAK4 (Homo sapiens, UniProt Q9NWZ3)
# T1 construct: Degradation of IRAK4 in OCI-LY10 was quantitatively measured using Meso Scale Discovery technology; endogenous in cells; host or cells: OCI-LY10
# T1 sequence (Q9NWZ3 1-460): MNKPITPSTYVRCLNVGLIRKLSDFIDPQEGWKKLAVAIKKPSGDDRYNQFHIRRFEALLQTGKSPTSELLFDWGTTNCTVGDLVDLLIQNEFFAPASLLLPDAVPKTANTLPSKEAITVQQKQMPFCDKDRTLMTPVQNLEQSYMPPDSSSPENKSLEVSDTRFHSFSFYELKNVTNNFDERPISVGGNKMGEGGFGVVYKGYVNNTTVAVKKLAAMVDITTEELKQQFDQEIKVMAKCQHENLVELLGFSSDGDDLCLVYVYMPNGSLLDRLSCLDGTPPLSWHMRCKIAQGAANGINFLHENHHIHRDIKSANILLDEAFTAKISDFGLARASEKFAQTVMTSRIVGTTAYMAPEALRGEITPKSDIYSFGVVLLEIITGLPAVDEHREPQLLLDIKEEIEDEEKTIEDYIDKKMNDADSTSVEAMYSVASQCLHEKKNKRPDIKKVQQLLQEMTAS
# Test: IRAK4 MSD Degradation in OCI-LY10
# Assay type: cell-based
# Details: OCI-LY10 cells, MSD
# Procedure: Degradation of IRAK4 in OCI-LY10 was quantitatively measured using Meso Scale Discovery technology. […] Compounds were then added to the assay plates with a final top concentration of 1 to 10 μM in a 1:3 dilution series with total of 8 doses. The assay plates were then incubated for 4 to 24 hours at 37° C. under 5% CO2. […] To prepare MSD assay plates (Meso Scale Discovery Catalog number L15XA-3), the plates were coated with 2 μg/mL capture antibody (mouse Anti-IRAK4 antibody [2H9], ab119942) in PBS, at 40 μL/well. […] Cell lysates were then added to MSD assay plates and the plates were incubated at room temperature for 1 hour. The plates were then washed 3 times with 150 μL/well TBST buffer and 25 μL/well primary detection antibody (rabbit Anti-IRAK4 antibody [Y279], from Abcam. Catalog number ab32511, 1 μg/mL). The assay plates were then incubated at room temperature for 1 hour, washed 3 times with 150 μL/well TBST buffer and 25 μL/well secondary detection antibody, SULFO-TAG anti-rabbit antibody were added (anti-rabbit antibody from Meso Scale Discovery, Catalog number R32AB-1, 1 μg/mL). The assay plates were then incubated at room temperature for 1 hour, washed 3 times with 150 μL/well TBST buffer, and 150 μL/well MSD reading buffer (Meso Scale Discovery catalog number R92TC-2) was added. The plates were then analyzed by a MSD reader (Meso Scale Discovery, Model Quick Plex SQ 120). The data was then analyzed by software Prism 7.0 from GraphPad and the dose-depended IRAK4 degradation were fit using a three-parameter logistic equation to calculate DC50.
# The letter codes for IRAK4 DC50 include: A (<0.01 μM); B (0.01 to <0.1 μM); C (0.1 to 0.2 μM); and D (>0.2 μM or not tested).
# [1] = 4 hrs incubation, read-out: IRAK4 degradation in OCI-LY10 at 4 hrs: DC50
# [2] = 24 hrs incubation, read-out: IRAK4 degradation in OCI-LY10 at 24 hrs: DC50
SMILES,DC50 [1] [nM],DC50 [2] [nM]
Cn1c(=O)n(C2CCC(=O)NC2=O)c2cccc(C#CCN3CCN(C[C@H]4CC[C@H](n5cc(NC(=O)c6cnn7ccc(N8C[C@H]9C[C@@H]8CO9)nc67)c(C(F)(F)F)n5)CC4)CC3)c21 (relative stereo) [I-112],10 to 100,> 200
Cn1c(=O)n(C2CCC(=O)NC2=O)c2cccc(CCCN3CCN(C[C@H]4CC[C@H](n5cc(NC(=O)c6cnn7ccc(N8C[C@H]9C[C@@H]8CO9)nc67)c(C(F)F)n5)CC4)CC3)c21 (relative stereo) [I-114],< 10,> 200
Cc1nn([C@H]2CC[C@H](CN3CCN(CC#Cc4cccc5c4n(C)c(=O)n5C4CCC(=O)NC4=O)CC3)CC2)cc1NC(=O)c1cnn2ccc(N3C[C@H]4C[C@@H]3CO4)nc12 (relative stereo) [I-115],10 to 100,> 200
Cn1c(=O)n(C2CCC(=O)NC2=O)c2cccc(C#CCN3CCN(C[C@H]4CC[C@H](n5cc(NC(=O)c6cnn7ccc(N8C[C@H]9C[C@@H]8CO9)nc67)c(Cl)n5)CC4)CC3)c21 (relative stereo) [I-117],> 200,10 to 100
"C[C@H]1CN(C[C@H]2CC[C@H](n3cc(NC(=O)c4cnn5ccc(N6C[C@H]7C[C@@H]6CO7)nc45)c(C(F)F)n3)CC2)CC[C@@H]1OCC#Cc1cccc2c1n(C)c(=O)n2[C@H]1CCC(=O)NC1=O (single isomer, unassigned) [I-67]",< 10,> 200
"Cn1c(=O)n([C@@H]2CCC(=O)NC2=O)c2cccc(C#CCN3CCN(C[C@H]4CC[C@H](n5cc(NC(=O)c6cnn7ccc(N8C[C@H]9C[C@@H]8CO9)nc67)c(C(F)F)n5)CC4)CC3)c21 (single isomer, unassigned) [I-71]",10 to 100,> 200
"Cn1c(=O)n([C@H]2CCC(=O)NC2=O)c2cccc(C#CCN3CCN(C[C@H]4CC[C@H](n5cc(NC(=O)c6cnn7ccc(N8C[C@H]9C[C@@H]8CO9)nc67)c(C(F)F)n5)CC4)CC3)c21 (single isomer, unassigned) [I-72]",< 10,> 200
"C[C@H]1CN(C[C@H]2CC[C@H](n3cc(NC(=O)c4cnn5ccc(N6C[C@H]7C[C@@H]6CO7)nc45)c(C(F)F)n3)CC2)CC[C@@H]1OCC#Cc1cccc2c1n(C)c(=O)n2[C@@H]1CCC(=O)NC1=O (single isomer, unassigned) [I-73]",10 to 100,> 200
"Cn1c(=O)n(C2CCC(=O)NC2=O)c2cccc(N3CCN(C4CCN([C@H]5CC[C@H](n6cc(NC(=O)c7cnn8ccc(N9C[C@H]%10C[C@@H]9CO%10)nc78)c(C(F)F)n6)CC5)CC4)CC3)c21 (single isomer, unassigned) [I-201]",< 10,> 200
"Cn1c(=O)n(C2CCC(=O)NC2=O)c2cccc(N3CCN(C4CCN([C@H]5CC[C@@H](n6cc(NC(=O)c7cnn8ccc(N9C[C@H]%10C[C@@H]9CO%10)nc78)c(C(F)F)n6)CC5)CC4)CC3)c21 (single isomer, unassigned) [I-425]",< 10,> 200
"Cn1c(=O)n(C2CCC(=O)NC2=O)c2cccc([C@@H]3CCN(C[C@H]4CC[C@H](n5cc6cc(NC(=O)c7cccc(C(F)(F)F)n7)ncc6n5)CC4)C[C@H]3F)c21 (single isomer, unassigned) [I-656]",> 200,< 10
"Cn1c(=O)n(C2CCC(=O)NC2=O)c2cccc(C3CN(C4CCN([C@H]5CC[C@H](n6cc(NC(=O)c7cnn8ccc(N9C[C@H]%10C[C@@H]9CO%10)nc78)c(C(F)F)n6)CC5)CC4(F)F)C3)c21 (single isomer, unassigned) [I-736]",> 200,< 10
"Cn1c(=O)n(C2CCC(=O)NC2=O)c2ccc(N3CC(CO[C@H]4CCN(C[C@H]5CC[C@H](n6cc(NC(=O)c7cnn8ccc(N9C[C@H]%10C[C@@H]9CO%10)nc78)c(C(F)F)n6)CC5)C[C@H]4F)C3)c(F)c21 (single isomer, unassigned) [I-738]",> 200,< 10
"Cn1c(=O)n(C2CCC(=O)NC2=O)c2cccc([C@H]3CCN(C[C@H]4CC[C@H](n5cc6cc(NC(=O)c7cccc(C(F)(F)F)n7)ncc6n5)CC4)C[C@H]3F)c21 (single isomer, unassigned) [I-781]",> 200,> 200
COc1ccc2c(c1C#CCO[C@@H]1CCN(C[C@H]3CC[C@H](n4cc(NC(=O)c5cnn6ccc(N7C[C@H]8C[C@@H]7CO8)nc56)c(C(F)F)n4)CC3)C[C@@H]1F)n(C)c(=O)n2C1CCC(=O)NC1=O (stereo partly shown) [I-1],10 to 100,> 200
COc1ccc2c(c1C#CCOC1CCN(C[C@H]3CC[C@H](n4cc(NC(=O)c5cnn6ccc(N7C[C@H]8C[C@@H]7CO8)nc56)c(C(F)F)n4)CC3)CC1)n(C)c(=O)n2C1CCC(=O)NC1=O (stereo partly shown) [I-2],< 10,> 200
Cn1c(=O)n(C2CCC(=O)NC2=O)c2cccc([C@]34C[C@](COC5CCN(C[C@H]6CC[C@H](n7cc(NC(=O)c8cnn9ccc(N%10C[C@H]%11C[C@@H]%10CO%11)nc89)c(C(F)F)n7)CC6)CC5)(C3)C4)c21 (stereo partly shown) [I-3],< 10,> 200
O=C1CCC(n2c(=O)n(C3CC3)c3c(C#CCN4CCN(C[C@H]5CC[C@H](n6cc(NC(=O)c7cnn8ccc(N9C[C@H]%10C[C@@H]9CO%10)nc78)c(C(F)F)n6)CC5)CC4)cccc32)C(=O)N1 (stereo partly shown) [I-4],< 10,> 200
Cn1c(=O)n(C2CCC(=O)NC2=O)c2cccc(C#CCN3CCCN(C[C@H]4CC[C@H](n5cc(NC(=O)c6cnn7ccc(N8C[C@H]9C[C@@H]8CO9)nc67)c(C(F)F)n5)CC4)CC3)c21 (stereo partly shown) [I-5],< 10,> 200
O=C1CCN(c2cncc3c2cccc3[C@H]2C[C@@H](CN3CCN(C[C@H]4CC[C@H](n5cc(NC(=O)c6cnn7ccc(N8C[C@H]9C[C@@H]8CO9)nc67)c(C(F)F)n5)CC4)CC3)C2)C(=O)N1 [I-6],< 10,> 200
Cn1c(=O)n(C2CCC(=O)NC2=O)c2cccc([C@]34C[C@](CN5CCN(C[C@H]6CC[C@H](n7cc(NC(=O)c8cnn9ccc(N%10C[C@H]%11C[C@@H]%10CO%11)nc89)c(C(F)F)n7)CC6)CC5)(C3)C4)c21 (stereo partly shown) [I-8],< 10,> 200
C[C@H]1CN(C[C@H]2CC[C@H](n3cc(NC(=O)c4cnn5ccc(N6C[C@H]7C[C@@H]6CO7)nc45)c(C(F)F)n3)CC2)CCN1CC#Cc1cccc2c1n(C)c(=O)n2C1CCC(=O)NC1=O (stereo partly shown) [I-9],10 to 100,> 200
O=C1CCN(c2cncc3c(C#CCOC4CCN(C[C@H]5CC[C@H](n6cc(NC(=O)c7cnn8ccc(N9C[C@H]%10C[C@@H]9CO%10)nc78)c(C(F)F)n6)CC5)CC4)cccc23)C(=O)N1 [I-10],< 10,> 200
O=C1CCN(c2cncc3cc(C#CCOC4CCN(C[C@H]5CC[C@H](n6cc(NC(=O)c7cnn8ccc(N9C[C@H]%10C[C@@H]9CO%10)nc78)c(C(F)F)n6)CC5)CC4)ccc23)C(=O)N1 [I-11],> 200,> 200
Cn1c(=O)n(C2CCC(=O)NC2=O)c2cccc(C#CCOC3C[C@H]4CC[C@@H](C3)N4C[C@H]3CC[C@H](n4cc(NC(=O)c5cnn6ccc(N7C[C@H]8C[C@@H]7CO8)nc56)c(C(F)F)n4)CC3)c21 (stereo partly shown) [I-12],> 200,> 200
CN(C[C@H]1CC[C@H](n2cc(NC(=O)c3cnn4cccnc34)c(C(F)F)n2)CC1)C1CCN(c2cccc3c(N4CCC(=O)NC4=O)cncc23)CC1 [I-13],> 200,> 200
Cn1c(=O)n(C2CCC(=O)NC2=O)c2cccc(C#CCC3CCN(C[C@H]4CC[C@H](n5cc(NC(=O)c6cnn7ccc(N8C[C@H]9CC8CO9)nc67)c(C(F)F)n5)CC4)CC3)c21 (stereo partly shown) [I-15],> 200,> 200
Cn1c(=O)n(C2CCC(=O)NC2=O)c2cccc(C#CCCOC3CCN(C[C@H]4CC[C@H](n5cc(NC(=O)c6cnn7ccc(N8C[C@H]9C[C@@H]8CO9)nc67)c(C(F)F)n5)CC4)CC3)c21 (stereo partly shown) [I-16],< 10,> 200
Cn1c(=O)n(C2CCC(=O)NC2=O)c2cccc(C#CC3CCCN(C[C@H]4CC[C@H](n5cc(NC(=O)c6cnn7ccc(N8C[C@H]9C[C@@H]8CO9)nc67)c(C(F)F)n5)CC4)C3)c21 (stereo partly shown) [I-17],10 to 100,> 200
